Data on two substances can be found in patent publication US12642766B2, “EDB-FN as biomarker of cancer and/or brain disease and nanodrug delivery system targeting same” (KOREA UNIVERSITY RESEARCH AND BUSINESS FOUNDATION, priority 2020, dated 2026).

Series [1] deals with EDB-FN. The experiment in a line: siRNA-mediated EDB-FN knockdown confirmed by qRT-PCR. As to conditions: U87MG cells; GAPDH internal control; control siRNA 1.00±0.08. The format is cell-based, human. The protocol: Cells were collected, and ribonucleic acid (RNA) was extracted with RiboEx using an RNA isolation kit (GeneAll, Seoul, Republic of Korea). Complementary DNA (cDNA) was synthesized by reverse transcription using a total of 1 μg of RNA from each sample. As a result, the following genes were estimated: EDB-FN gene (forward primer: 5′-[…]-3′; reverse primer: 5′-[…]-3′); glyceraldehyde 3-phosphate dehydrogenase) gene (forward primer: 5′-[…]-3′; reverse primer: 5′-[…]-3′. The polymerase chain reaction protocol was as follows: initial denaturation at 94° C. for 5 min; 30 repetitions of denaturation at 94° C. for 1 min, primer annealing at 55° C. for 1 min, and extension at 72° C. for 2 min; and final extension at 72° C. for 7 min 1 μg of cDNA was added to 4 μL of ultrapure water, 5 μL of SYBR Green real-time mixture (Takara, Tokyo, Japan) was added before performing a real-time polymerase chain reaction (Qiagen, Tokyo, Japan). The messenger RNA (mRNA) level of each gene was quantified using the 2^−ΔΔ^Ct method and normalized with the messenger RNA of glyceraldehyde 3-phosphate dehydrogenase.
EDB-FN-specific siRNA and scrambled control siRNA were purchased from Bioneer (Daejeon, Republic of Korea). The target sequence of EDB-FN siRNA used for RNA interference is as follows: sense; […], antisense; […]. […] Transfection efficacy was analyzed after 48 hours.
On the technique in general: Real-time PCR tracks product formation cycle by cycle.

Series [2] has as its target EDB-FN (Homo sapiens, UniProt P02751). As to conditions: read-out: affinity of binding to EDB-FN; cited from earlier work.

Ends that are not written are not given here.

EDB-FN (Homo sapiens, UniProt P02751), sequence (P02751 32-2477): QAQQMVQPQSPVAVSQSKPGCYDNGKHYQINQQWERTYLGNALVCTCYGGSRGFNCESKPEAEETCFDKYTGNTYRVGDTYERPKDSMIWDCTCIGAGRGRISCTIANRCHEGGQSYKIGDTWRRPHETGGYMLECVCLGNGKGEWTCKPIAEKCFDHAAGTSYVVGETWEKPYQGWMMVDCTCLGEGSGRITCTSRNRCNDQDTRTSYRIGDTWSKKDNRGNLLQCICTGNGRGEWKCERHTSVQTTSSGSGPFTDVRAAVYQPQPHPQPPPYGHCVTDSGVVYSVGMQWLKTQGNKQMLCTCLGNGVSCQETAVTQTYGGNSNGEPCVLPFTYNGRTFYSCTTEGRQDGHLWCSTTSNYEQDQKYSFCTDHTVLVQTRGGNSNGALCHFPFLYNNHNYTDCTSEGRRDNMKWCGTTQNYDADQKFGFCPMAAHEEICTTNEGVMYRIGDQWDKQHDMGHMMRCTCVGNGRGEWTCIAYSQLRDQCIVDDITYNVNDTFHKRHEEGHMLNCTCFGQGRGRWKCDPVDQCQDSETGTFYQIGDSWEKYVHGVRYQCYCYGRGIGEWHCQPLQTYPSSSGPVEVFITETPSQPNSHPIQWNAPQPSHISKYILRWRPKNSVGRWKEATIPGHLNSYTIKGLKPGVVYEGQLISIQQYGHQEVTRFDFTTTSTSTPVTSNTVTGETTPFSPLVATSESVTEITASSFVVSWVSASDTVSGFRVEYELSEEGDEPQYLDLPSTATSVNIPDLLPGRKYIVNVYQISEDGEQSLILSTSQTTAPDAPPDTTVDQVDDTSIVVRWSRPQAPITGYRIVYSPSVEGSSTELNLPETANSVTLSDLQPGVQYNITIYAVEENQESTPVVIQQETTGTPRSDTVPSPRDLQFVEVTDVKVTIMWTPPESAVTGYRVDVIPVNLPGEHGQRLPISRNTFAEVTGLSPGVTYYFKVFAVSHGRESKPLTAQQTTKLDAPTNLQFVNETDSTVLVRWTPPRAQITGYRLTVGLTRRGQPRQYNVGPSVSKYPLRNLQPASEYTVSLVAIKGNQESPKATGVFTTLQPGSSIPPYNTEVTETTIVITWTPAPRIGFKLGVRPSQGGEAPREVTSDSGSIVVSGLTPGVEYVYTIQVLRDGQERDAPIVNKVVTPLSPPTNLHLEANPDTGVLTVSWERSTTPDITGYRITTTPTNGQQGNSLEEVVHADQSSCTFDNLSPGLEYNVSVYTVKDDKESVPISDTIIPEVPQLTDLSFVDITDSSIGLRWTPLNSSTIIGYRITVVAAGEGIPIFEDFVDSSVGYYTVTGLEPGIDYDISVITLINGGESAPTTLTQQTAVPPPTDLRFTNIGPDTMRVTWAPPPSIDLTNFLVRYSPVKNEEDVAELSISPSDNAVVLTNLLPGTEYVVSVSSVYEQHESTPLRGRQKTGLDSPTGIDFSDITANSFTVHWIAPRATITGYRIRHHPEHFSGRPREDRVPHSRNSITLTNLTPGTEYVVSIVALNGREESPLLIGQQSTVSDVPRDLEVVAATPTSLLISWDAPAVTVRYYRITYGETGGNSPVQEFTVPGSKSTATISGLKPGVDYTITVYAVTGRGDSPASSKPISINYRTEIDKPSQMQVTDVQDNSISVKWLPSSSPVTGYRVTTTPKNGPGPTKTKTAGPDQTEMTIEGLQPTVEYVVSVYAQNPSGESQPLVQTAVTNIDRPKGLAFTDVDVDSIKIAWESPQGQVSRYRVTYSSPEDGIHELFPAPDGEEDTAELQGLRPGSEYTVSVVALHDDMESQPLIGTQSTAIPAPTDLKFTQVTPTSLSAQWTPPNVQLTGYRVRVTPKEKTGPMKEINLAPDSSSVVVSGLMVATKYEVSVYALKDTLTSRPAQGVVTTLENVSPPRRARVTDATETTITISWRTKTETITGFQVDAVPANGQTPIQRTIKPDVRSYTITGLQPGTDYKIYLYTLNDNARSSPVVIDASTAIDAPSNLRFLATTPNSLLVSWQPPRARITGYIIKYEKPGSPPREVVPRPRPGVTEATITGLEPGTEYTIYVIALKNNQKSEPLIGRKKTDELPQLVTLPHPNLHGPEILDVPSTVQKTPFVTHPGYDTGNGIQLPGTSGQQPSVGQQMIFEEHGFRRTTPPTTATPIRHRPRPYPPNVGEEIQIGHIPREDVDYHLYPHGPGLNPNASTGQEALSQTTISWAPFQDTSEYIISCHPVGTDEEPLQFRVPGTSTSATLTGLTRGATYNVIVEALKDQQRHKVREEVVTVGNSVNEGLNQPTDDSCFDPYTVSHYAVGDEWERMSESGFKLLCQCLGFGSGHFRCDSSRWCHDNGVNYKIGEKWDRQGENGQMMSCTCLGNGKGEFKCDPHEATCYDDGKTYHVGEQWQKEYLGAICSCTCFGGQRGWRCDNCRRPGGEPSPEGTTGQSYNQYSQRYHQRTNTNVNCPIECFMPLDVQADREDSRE

Turning to “EDB-FN siRNA: EDB-FN-specific siRNA; sense ACAGUCCCAGAUCAUGGAG, antisense CUCCAUGAUCUGGGACUGU (chemistry not given here)”, the “EDB-FN expression (qRT-PCR)” value in the series with EDB-FN [1] came out at 0.45±0.01.

Turning to “N′-CSSPIQGSWTWENGK(C)WTWGIIRLEQ-C′ (CSSPIQGSWTWENGK(Cys)WTWGIIRLEQ; listed as Homo sapiens) [APTEDB, EDB-FN-specific aptamer-like peptide (aptide)]”, the Kd with EDB-FN [2] is less than 100 nM.
